Reference: PMC6131539, “Behavioral Effects of a Potential Novel TAAR1 Antagonist” (Frontiers in Pharmacology, 2018)

Legend:
[1] = test system: C57BL/6J mice; assay: Amphetamine-induced locomotor activity, co-injection, C57BL/6J mice; format: in vivo; details: 60 min
Description: (§1) Experimentally naïve mice, of at least 12 weeks of age, were used for all behavioral experiments. The mice were randomly assigned to treatment or control groups, balanced by sex and weight. Locomotor activity was assessed using the automated locomotor analysis monitors (Omnitech Electronics, Columbus, OH, United States). The apparatus included four open field monitors. Each Open Field monitor consisted of sets of 16 light beams arrayed in the horizontal X and Y axes. The hardware detected beams broken by the animal, which allowed the software to determine the location of the mouse in the cage. Total distance covered by mice was used to characterize locomotor activity of the animals. The monitors were divided into four compartments (20 cm × 20 cm). Animals were tested individually for defined periods with 5-min intervals. The mice were first weighed and then placed into the apparatus, allowing for 30 min habituation. Following the habituation, the mice were removed from the al apparatus and injected with drugs (see below for administration) or vehicle and returned immediately to the locomotor chamber. The locomotor activity was then measured for additional 1 h. After the experiments, the animals were euthanized by cervical dislocation.
All drug solutions were prepared freshly on the day of the experiment and injected i.p. at the volume of 10 ml/kg. […] Amphetamine was dissolved in 0.9% saline at a concentration of 0.2 mg/mL.
The effect of compound 22 (5, 15, 20, 30, and 50 mg/kg) on locomotor activity, in mice, in combination to a single, sub-maximal dose of amphetamine (2 mg/kg) was carried out (Figure 2). […] Although not significant, there was a trend toward an increase in locomotor activity at the dose of 5 mg/kg as well (28% increase, p = 0.32).
FIGURE 2 In vivo studies with compound 22 co-injected with amphetamine in WT mice. Wild type C57BL/6J mice were first habituated for 30 min followed by the co-injection of amphetamine (2 mg/kg) and saline or compound 22 at doses 5, 15, 20, 25, 30, and 50 mg/kg. The locomotor activity was assessed for 60 min after the injection. (A) Locomotor activity over time for 2 mg/kg amphetamine only or co-injected with 5, 15, or 20 mg/kg compound 22; (B) locomotor activity over time for 2 mg/kg amphetamine only or co-injected with 30 or 50 mg/kg compound 22; (C) sum of locomotor activity over 60 min after the injection of amphetamine and compound 22. Data are means ± SEM; N = 12–18 for compound 22 treated alone and N = 66 for amphetamine treated alone. A one way ANOVA was performed [F(5,126) = 4.788, p = 0.0005] followed by Dunnett’s post hoc analyses (^∗p < 0.05, ^∗∗∗p < 0.001).

[2] = test system: TAAR1-KO mice; assay: Basal locomotor activity in TAAR1-KO mice; format: in vivo; details: 5 and 25 mg/kg alone, 60 min
Description: as §1, with “The Taarl^-/- (TAAR1-KO) mice were obtained from Lundbeck ([Wolinsky et al., 2007]). All wild type (WT) and TAAR1-KO mice used for experiments were generated from TAAR1-KO heterozygous mice in a C57BL/6J x 129S1/Sv mixed background. Experimentally” for “Experimentally”, “Following the habituation, the mice were removed from the al apparatus and injected with drugs (see below for administration) or vehicle and returned immediately to the locomotor chamber.” left out, “[…] The locomotor activity was assessed for 60 min following” for “After”, “injection. […]” for “experiments, the animals were euthanized by cervical dislocation.”

## Clc1ccc(CNCc2ccc(Cn3cncn3)cc2)c(Cl)c1 [compound 22]
[1]; 5 mg/kg i.p. co-injected with amphetamine 2 mg/kg, not significant, p = 0.32
  increase in amphetamine-stimulated locomotor activity: 28%
[1]; 15 mg/kg i.p. co-injected with amphetamine 2 mg/kg, p = 0.04
  increase in amphetamine-stimulated locomotor activity: 44%
[1]; 20 mg/kg i.p. co-injected with amphetamine 2 mg/kg, p = 0.02
  increase in amphetamine-stimulated locomotor activity: 57%
[1]; 30 mg/kg i.p. co-injected with amphetamine 2 mg/kg, p = 0.0009
  increase in amphetamine-stimulated locomotor activity: 77%
[1]; 50 mg/kg i.p. co-injected with amphetamine 2 mg/kg
  change in amphetamine-stimulated locomotor activity: no difference in locomotor activity
[2]
  effect on basal locomotor activity: did not significantly alter
